Read-outs that look alike come from different tables or passages of the source. Peptide text beside a SMILES is read from it.
Tests used:
Format in all cases: cell-based
[1] = tested on: A. baumannii ATCC 19606, Acinetobacter spp. ATCC 17903, Acinetobacter spp. ATCC 19004, E. coli BL21, S. aureus, S. typhimurium AroA, P. aeruginosa, P. …; assay: Antibacterial spectrum over the serial dilution panel (Table 6); conditions: summary of Table 6
Protocol: (§1) Synthetic peptides were tested for their ability to inhibit bacterial growth in liquid culture. The peptides were added at a concentration of between about 5 μM and about 10 μM to individual wells of 96-deep-well dishes that contained liquid growth media freshly inoculated with one of the following bacteria: A. baumannii ATCC Accession No. 19606, Acinetobacter spp. ATCC 17903, Acinetobacter spp. ATCC 19004, Escherichia coli strain BL21, S. aureus, S. typhimurium strain AroA, P. aeruginosa or P. pneumotropica. After 5-6 hours of shaking at 37° C., growth was measured as absorbance at 595 nm. As a control, cultures were grown in the presence of 0.1% acetonitrile (i.e., the concentration present in 10 μM peptide).

[2] = tested on: S. typhimurium strain AroA
Protocol: as §1, with “The peptides were added at a concentration of between about 5 μM and about 10 μM to individual wells of 96-deep-well dishes that contained liquid growth media freshly inoculated with one of the following bacteria: A. baumannii ATCC Accession No.” left out

[3] = tested on: A. baumannii
Excerpt: Broth dilution methods are e.g., described by Lorian (2007) In: Antibiotics in Laboratory Medicine, Fifth Edition; and In: Clinical and Laboratory Standards Institute, CLSI (formerly NCCLS), In: Methods for Dilution Antimicrobial Susceptibility Tests for Bacteria that Grow Aerobically—Approved Standard—Seventh Edition, CLSI document M7-A7, Villanova, Pa. (NCCLS; January 2006; Vol. 26 No. 2); and In: Clinical and Laboratory Standards Institute, CLSI (formerly NCCLS), Performance Standards for Antimicrobial Susceptibility Testing, Seventeenth Informational Supplement, M100-S17, Vol 27 No. 1 January 2007, all of which are incorporated herein by reference.
The present inventors used such methods to quantitate activity in vitro of antimicrobial peptides of the invention against bacterial isolates, including laboratory strains and 50 clinical isolates of A. baumannii, and S. aureus ATCC Accession No. 2992. Briefly, small volumes of broth are dispensed in sterile, plastic microtiter trays, and 100 μl of serially-diluted antimicrobial peptide (0.1-64 μg) and 100 μl test organism (approximately 1×10^5 C.F.U.), are added. Following aerobic incubation overnight at 35±2° C. Control samples lacked peptide (Growth control), or lacked peptide and bacteria (Sterility control). The trays were examined visually and the minimal inhibitory concentration (MIC) of peptide required to inhibit bacterial growth were determined. The minimum bactericidal concentration (MBC) was estimated by sub-culturing the wells for which no bacterial growth was visible to the naked eye, to thereby determine a concentration of antimicrobial that reduces the original inoculum by at least about 99.9%.

C[C@@H](O)[C@H](NC(=O)[C@H](CS)NC(=O)[C@H](CO)NC(=O)[C@@H](N)Cc1c[nH]cn1)C(=O)N[C@H](C(=O)N1CCC[C@H]1C(=O)N[C@@H](CC(N)=O)C(=O)N[C@H](C(=O)N1CCC[C@H]1C(=O)N[C@@H](CCC(N)=O)C(=O)N[C@@H](CCC(N)=O)C(=O)N1CCC[C@H]1C(=O)N[C@@H](Cc1c[nH]cn1)C(=O)N1CCC[C@H]1C(=O)N[C@@H](Cc1c[nH]cn1)C(=O)N[C@@H](Cc1c[nH]cn1)C(=O)N[C@@H](CCCNC(=N)N)C(=O)N[C@@H](Cc1c[nH]cn1)C(=O)N[C@@H](CCCNC(=N)N)C(=O)N[C@@H](CCCNC(=N)N)C(=O)N[C@@H](Cc1c[nH]cn1)C(=O)N[C@@H](CCCNC(=N)N)C(=O)N[C@@H](Cc1c[nH]cn1)C(=O)O)[C@@H](C)O)[C@@H](C)O [Ac46] (H-HSCTTPNTPQQPHPHHRHRRHRH-OH; N-terminus and C-terminus assumed)
selectively inhibited growth of Acinetobacter spp. ATCC 19004, and S. aureus [1]: selectively inhibited growth | % inhibition of bacterial growth by peptide ([2]; 5 μM peptide): 3% | % inhibition of bacterial growth by peptide ([2]; 10 μM peptide): 16% | % inhibition of bacterial growth by peptide ([2]; 15 μM peptide): 18% | % inhibition of bacterial growth by peptide ([2]; 20 μM peptide): 36%

C[C@H](NC(=O)[C@H](CO)NC(=O)[C@H](CCCNC(=N)N)NC(=O)CNC(=O)[C@H](CCCNC(=N)N)NC(=O)CNC(=O)[C@H](CO)NC(=O)[C@H](CO)NC(=O)[C@H](CCCNC(=N)N)NC(=O)CNC(=O)[C@@H]1CCCN1C(=O)[C@@H]1CCCN1C(=O)[C@H](CO)NC(=O)[C@H](CCCNC(=N)N)NC(=O)[C@@H]1CCCN1C(=O)[C@H](CO)NC(=O)[C@@H]1CCCN1C(=O)[C@@H](NC(=O)[C@H](CCCNC(=N)N)NC(=O)CNC(=O)[C@@H](N)Cc1c[nH]c2ccccc12)[C@@H](C)O)C(=O)N[C@@H](CO)C(=O)N[C@@H](CS)C(=O)O [Ac66] (H-WGRTPSPRSPPGRSSGRGRSASC-OH; N-terminus and C-terminus assumed)
selectively inhibited growth of Acinetobacter spp. ATCC 19004, and S. aureus [1]: selectively inhibited growth | % inhibition of bacterial growth by peptide ([2]; 12.5 μM peptide): 0% | % inhibition of bacterial growth by peptide ([2]; 15 μM peptide): 0% | % inhibition of bacterial growth by peptide ([2]; 17.5 μM peptide): 0% | % inhibition of bacterial growth by peptide ([2]; 20 μM peptide): 0%

C[C@H](NC(=O)[C@@H](NC(=O)CNC(=O)[C@@H]1CCCN1C(=O)[C@H](Cc1c[nH]cn1)NC(=O)[C@H](CCCNC(=N)N)NC(=O)[C@H](Cc1c[nH]cn1)NC(=O)[C@H](CCCNC(=N)N)NC(=O)[C@H](Cc1c[nH]cn1)NC(=O)[C@H](CCCNC(=N)N)NC(=O)[C@H](CCCNC(=N)N)NC(=O)[C@H](Cc1c[nH]cn1)NC(=O)[C@H](CCCNC(=N)N)NC(=O)[C@H](Cc1c[nH]cn1)NC(=O)[C@H](Cc1c[nH]cn1)NC(=O)[C@@H]1CCCN1C(=O)[C@H](Cc1c[nH]cn1)NC(=O)[C@@H]1CCCN1C(=O)[C@H](CCC(N)=O)NC(=O)[C@H](CCC(N)=O)NC(=O)[C@@H]1CCCN1C(=O)[C@@H](NC(=O)[C@@H](N)CC(N)=O)[C@@H](C)O)[C@@H](C)O)C(=O)O [Ac47] (H-NTPQQPHPHHRHRRHRHRHPGTA-OH; N-terminus and C-terminus assumed)
selectively inhibited growth of Acinetobacter spp. ATCC 19004, and S. aureus [1]: selectively inhibited growth | % inhibition of bacterial growth by peptide ([2]; 5 μM peptide): 13% | % inhibition of bacterial growth by peptide ([2]; 10 μM peptide): 25% | % inhibition of bacterial growth by peptide ([2]; 15 μM peptide): 29% | % inhibition of bacterial growth by peptide ([2]; 20 μM peptide): 50%

CC[C@H](C)[C@H](NC(=O)[C@H](CCCCN)NC(=O)[C@H](CO)NC(=O)[C@H](CC(C)C)NC(=O)[C@@H](N)CC(C)C)C(=O)N[C@@H](CCCNC(=N)N)C(=O)N[C@@H](C)C(=O)N[C@@H](CC(C)C)C(=O)N[C@@H](CCCNC(=N)N)C(=O)N[C@@H](CCCNC(=N)N)C(=O)N[C@@H](CCCNC(=N)N)C(=O)N[C@@H](CCCNC(=N)N)C(=O)N[C@@H](Cc1ccccc1)C(=O)NCC(=O)N[C@@H](CCC(N)=O)C(=O)N[C@@H](CO)C(=O)N[C@@H](CC(=O)O)C(=O)N[C@@H](CCCCN)C(=O)N[C@@H](CCCNC(=N)N)C(=O)N[C@H](C(=O)N[C@@H](CO)C(=O)N[C@@H](Cc1ccc(O)cc1)C(=O)N[C@@H](CCCCN)C(=O)O)[C@@H](C)CC [Ac16] (H-LLSKIRALRRRRFGQSDKRISYK-OH)
selectively inhibited growth of A. baumannii ATCC Accession No. 19606, Acinetobacter spp. ATCC 17903 and Acinetobacter spp. ATCC 19004 [1]: selectively inhibited growth | MIC (μM) for non-amidated Peptide [3]: 10 to 15 µM

CC[C@H](C)[C@H](NC(=O)[C@H](Cc1c[nH]c2ccccc12)NC(=O)[C@H](CC(=O)O)NC(=O)[C@H](CO)NC(=O)[C@H](CS)NC(=O)[C@H](CC(C)C)NC(=O)[C@H](CC(C)C)NC(=O)[C@H](C)NC(=O)[C@H](CS)NC(=O)[C@H](CCCNC(=N)N)NC(=O)[C@H](CC(C)C)NC(=O)[C@H](CCCNC(=N)N)NC(=O)[C@H](C)NC(=O)CN)C(=O)N[C@H](C(=O)N[C@@H](CO)C(=O)N[C@@H](CS)C(=O)N[C@@H](CCCNC(=N)N)C(=O)N[C@@H](CC(C)C)C(=O)N[C@@H](CC(C)C)C(=O)NCC(=O)N[C@H](C(=O)N[C@@H](CC(N)=O)C(=O)O)C(C)C)C(C)C [Ac40] (H-GARLRCALLCSDWIVSCRLLGVN-OH; N-terminus and C-terminus assumed)
selectively inhibited growth of A. baumannii ATCC Accession No. 19606, Acinetobacter spp. ATCC 17903, Acinetobacter spp. ATCC 19004, and S. aureus [1]: selectively inhibited growth | MIC (μM) for amidated peptide [3]: 10 to 15 µM | MIC (μM) for non-amidated Peptide [3]: 10 to 15 µM

CC(C)C[C@H](NC(=O)[C@H](CCCCN)NC(=O)[C@H](CCCNC(=N)N)NC(=O)[C@H](CC(C)C)NC(=O)[C@H](CCC(=O)O)NC(=O)[C@H](CCC(=O)O)NC(=O)[C@H](Cc1ccc(O)cc1)NC(=O)[C@H](CCC(N)=O)NC(=O)[C@H](C)NC(=O)CN)C(=O)N[C@@H](CO)C(=O)N[C@@H](CCCCN)C(=O)NCC(=O)N[C@@H](CC(=O)O)C(=O)N[C@@H](Cc1c[nH]cn1)C(=O)N[C@@H](CC(C)C)C(=O)N[C@H](C(=O)N[C@@H](CCCCN)C(=O)N[C@@H](CC(C)C)C(=O)N[C@@H](CCCCN)C(=O)N[C@H](C(=O)N[C@@H](CO)C(=O)N1CCC[C@H]1C(=O)O)[C@@H](C)O)C(C)C [Ac98] (H-GAQYEELRKLSKGDHLVKLKTSP-OH; N-terminus and C-terminus assumed)
selectively inhibited growth of S. aureus [1]: selectively inhibited growth

CC[C@H](C)[C@H](NC(=O)[C@H](CCCCN)NC(=O)[C@H](CO)NC(=O)[C@H](CC(C)C)NC(=O)[C@@H](N)CC(C)C)C(=O)N[C@@H](CCCNC(=N)N)C(=O)N[C@@H](C)C(=O)N[C@@H](CC(C)C)C(=O)N[C@@H](CCCNC(=N)N)C(=O)N[C@@H](CCCNC(=N)N)C(=O)N[C@@H](CCCNC(=N)N)C(=O)N[C@@H](CCCNC(=N)N)C(=O)N[C@@H](Cc1ccccc1)C(=O)NCC(=O)N[C@@H](CCC(N)=O)C(=O)N[C@@H](CS)C(=O)N[C@@H](CC(=O)O)C(=O)N[C@@H](CCCCN)C(=O)N[C@@H](CCCNC(=N)N)C(=O)N[C@H](C(=O)N[C@@H](CO)C(=O)N[C@@H](Cc1ccc(O)cc1)C(=O)N[C@@H](CCCCN)C(=O)O)[C@@H](C)CC [Ac15] (H-LLSKIRALRRRRFGQCDKRISYK-OH; N-terminus and C-terminus assumed)
selectively inhibited growth of A. baumannii ATCC Accession No. 19606, Acinetobacter spp. ATCC 17903 and Acinetobacter spp. ATCC 19004 [1]: selectively inhibited growth

From patent US20110262508A1, “ANTIMICROBIAL COMPOSITIONS, FORMULATIONS AND USES THEREOF” (priority 2007, published 2011)
